Test results: the SangsterLogP compilation

Tests used:
[1] = method code SF-AS, from M. Kuchar, J. Tomkova, V. Rejholec, & O. Roubinek. (1992). Some problems of the chromatographic evaluation of lipophicity. In Kuchar, M. (Ed.) QSAR in Design of Bioactive Compounds (pp. 65-81). Prous …; details: pH 3.4
[2] = method code SF, from DOI: 10.1016/s0223-5234(99)80097-x; details: pH 7.5
[3] = method code SF-HPLC, from DOI: 10.1016/j.apradiso.2007.04.014, PMID: 17574425; details: pH 7.4
[4] = not given; remark: listed apart in the source
[5] = not given; remark: listed apart in the source
[6] = method code SF-AS, from DOI: 10.1248/cpb.28.3673
[7] = method code SF-HPLC, from PMID: 1854437; details: pH 7.4
[8] = method code SF, from DOI: 10.1016/s0021-9673(03)00534-x, PMID: 12800922; details: pH 11.0
[9] = method code SF-AS, from DOI: 10.1002/chin.199416148, PMID: 8117185
[10] = method code SF-HPLC, from DOI: 10.1021/jf0483669, PMID: 15913295; details: pH 7.4
[11] = not given; remark: listed apart in the source
[12] = method code SF-HPLC, from DOI: 10.1006/pest.1998.2384
[13] = method code SF-AS, from DOI: 10.1248/cpb.42.1084, PMID: 8069960
[14] = method code SF-AS, from PMID: 6540096; details: pH 7.5
[15] = method code SF, from DOI: 10.1023/a:1012119527214, PMID: 9453056; details: pH 12.5
[16] = not given; remark: listed apart in the source
[17] = method code G, from Wang, L.; Li, H.; Wang, X.; Zhang, Z. (1993). Determination of aqueous solubilities and partition coefficients of substitutive ethylketone congeners by generator column. Huanjing Huaxue, 12(2)151-154.
[18] = from Comini, L.; Núñez Montoya, S.; Argüello, G.; Cabrera, J. (2006). Partition coefficient (log P) determination of anthraquinone derivatives isolated from Heterophyllaea pustulata Hook, f. (Rubiaceae). …; details: pH 7.4
[19] = method code SF-AS, from DOI: 10.1128/jb.153.1.232-240.1983, PMID: 6294048
[20] = method code SF-HPLC, from DOI: 10.1002/ps.2780440103; details: pH 2.0
[21] = method code SF-AS, from DOI: 10.1021/jm00296a014, PMID: 5418493
[22] = method code SF, from DOI: 10.1080/10826070801924857
[23] = method code SF-HPLC, from DOI: 10.1021/js950346l, PMID: 9109056
[24] = from Afshan, A.; Jehangir, M.; Amin, W.; Mujahid, A. (2000). Study of various esters of ethylcysteine acid dimer as brain perfusion imaging agents and formulation into single vial kit for labelling with …; details: pH 7.5
[25] = method code SF-HPLC, from DOI: 10.1002/ps.2780280108
[26] = method code SF-AS, from PMID: 3774812; details: pH 4.0
[27] = from Nishimura, K.; Okajima, N.; Fujita, T.; Nakajima, M. (1982). Quantitative structure-activity studies of substituted benzylchrysanthemates. IV. Physicochemical properties and rate of progress of the …
[28] = method code SF-RC, from DOI: 10.1021/jm000079i, PMID: 10956218; details: pH 7.4
[29] = method code SF-HPLC, from DOI: 10.1021/jm030477w, PMID: 15084119; details: pH 7.4
[30] = not given; remark: listed apart in the source
[31] = method code SF-HPLC, from DOI: 10.1016/j.ejpb.2012.12.004, PMID: 23262162
[32] = not given; remark: listed apart in the source

Structure (SMILES): O=C(O)CCc1ccc(OCc2ccccc2)cc1
- logD [1]: 3.31

Structure (SMILES): NC(=O)C(CCN1CCCCC1)c1ccccc1Cl (stereo not given)
- logP: 2.46

Structure (SMILES): CCc1c(O)c(=O)ccn1CCOC(=O)c1ccccc1
- logD [2]: 1.52

Structure (SMILES): O=C(CCl)Nc1cc2c(Nc3cc(Cl)c(Cl)cc3F)ncnc2cc1OCCOCCOCCOCCOCCOCCF
- logD [3]: 4.75

Structure (SMILES): O=C(NCC(F)(F)F)NS(=O)(=O)c1cnccc1NC1CCCCCC1
- logP [4]: 0.95

Structure (SMILES): Cc1cc2oc(=O)cc(C)c2cc1OCC(O)CO (stereo not given)
- logP [5]: 0.36

Structure (SMILES): CO[C@@]1(NC(=O)C(C(=O)O)c2ccc(O)cc2)C(=O)N2C(C(=O)O)=C(CSc3nnnn3C)CO[C@@H]21 (stereo not given in full)
- logD ([6]; pH 2.0): -0.58

Structure (SMILES): CCCCCCOC(=O)n1cnc(C)c1CSCCNC(=NC#N)NC
- logD [7]: 3.1

Structure (SMILES): O=C(NC1CCCCCC1)NS(=O)(=O)c1cnccc1Nc1cccc(C(F)(F)F)c1
- logP [4]: 2.02

Structure (SMILES): CC(C)(C)NCC(O)COc1cccc2c1CCC(=O)N2 (stereo not given)
- logD [8]: 1.49

Structure (SMILES): O=C(CCN1CCOCC1)CN1C(=O)C2CC=CCC2C1=O (stereo not given)
- logP [9]: 0.56

Structure (SMILES): O=c1c(-c2ccc(O)cc2)coc2cc(O[C@@H]3O[C@H](CO)[C@@H](O)[C@H](O)[C@H]3O)ccc12
- logD [10]: 0.32

Structure (SMILES): CC1(C)Oc2ccc(C#N)cc2C(N2CCCC2=O)C1O (stereo not given)
- logP [11]: 2.1

Structure (SMILES): CCCCCCN1CCN(Cc2ccc(Cl)nc2)C1=N[N+](=O)[O-]
- logP [12]: 2.2

Structure (SMILES): COc1ccc2[nH]c3c4ccc(Cl)cc4ncc3c2c1
- logP [13]: 4.49

Structure (SMILES): O=C1CN=C(c2ccccc2Cl)c2cc([N+](=O)[O-])ccc2N1
- logD [14]: 2.5

Structure (SMILES): CCN(CC)CC(=O)Nc1c(C)cc(C)cc1C
- logD [15]: 2.73

Structure (SMILES): CC(=O)CC(c1ccccc1)c1c(O)c2ccccc2oc1=O (stereo not given)
- logP [11]: 2.4

Structure (SMILES): CNS(=O)(=O)Cc1ccc2[nH]cc(CCN(C)C)c2c1
- logP [16]: 1.1

Structure (SMILES): Cc1ccc(C(=O)CSc2ccccc2)cc1
- logP [17]: 2.7

Structure (SMILES): Cc1c(O)cc2c(c1O)C(=O)c1ccccc1C2=O
- logD [18]: 2.36

Structure (SMILES): Cc1cc(-c2ccc(N)c(C)c2)ccc1N
- logD ([6]; pH 5.8): 2.34

Structure (SMILES): CC(=O)OCC1=C(C(=O)O)N2C(=O)C(NC(=O)Cc3cc4ccccc4s3)C2SC1 (stereo not given)
- logD ([19]; pH 3.0): 1.68

Structure (SMILES): COc1c(C)c(O)cc2c1C(=O)c1ccccc1C2=O
- logD [18]: 2.83

Structure (SMILES): O=C(CCN1CCCC1)CN1C(=O)C2CC=CCC2C1=O (stereo not given)
- logP [9]: 1.11

Structure (SMILES): Cc1c(O)c(=O)ccn1CCOC(=O)c1ccccc1
- logD [2]: 1.04

Structure (SMILES): CCCN(CC)C(CC)C(=O)Nc1c(C)cccc1C (stereo not given)
- logD [15]: 3.22

Structure (SMILES): CSC(=NOC(=O)N(C)COC1OC(C(=O)O)C(O)C(O)C1O)C(=O)N(C)C (stereo not given)
- logD [20]: -1.98

Structure (SMILES): O=[N+]([O-])N=C1N(Cc2ccccc2)CCN1Cc1ccc(Cl)nc1
- logP [12]: 1.49

Structure (SMILES): CC(C(=O)O)(c1ccccc1)c1ccccc1
- logP [21]: 2.69

Structure (SMILES): CC(C)(C)NC[C@H](O)COc1ccccc1C1CCCC1
- logD [8]: 3.61

Structure (SMILES): COC(=O)[C@H]1O[C@@H](Oc2ccc3ccc(=O)oc3c2)[C@H](O)[C@@H](O)[C@@H]1O
- logD [20]: -1.08

Structure (SMILES): O=C(O)C1c2ccccc2Cc2ccccc21
- logP [21]: 2.78

Structure (SMILES): CCCCCCOC(=O)OC[C@@H]1O[C@H](n2ccc(N)nc2=O)CS1
- logP [22]: 1.57

Structure (SMILES): O=C(O)COC(=O)Cc1ccccc1Nc1c(Cl)cccc1Cl
- logP [23]: 2.7

Structure (SMILES): CCCOC(=O)[C@H](CS)NCCN[C@@H](CS)C(=O)OCCC
- logD [24]: 2.5

Structure (SMILES): Oc1ccc([C@H]2COc3cc(O)ccc3C2)cc1
- logD [10]: 3.2

Structure (SMILES): COC(=O)c1c(C)[nH]c(-c2cccc(Cl)n2)c1C(=O)OC
- logP [25]: 2.65

Structure (SMILES): CN1C(C(=O)Nc2ccccn2)=C(O)c2ccccc2S1(=O)=O
- logP [23]: 1.86

Structure (SMILES): CN(C)C(=O)O[C@H]1N=C(c2ccccc2)c2cc(Cl)ccc2N(C)C1=O
- logD [14]: 2.88

Structure (SMILES): O=C(CCl)Nc1ccc2ncnc(Nc3cc(Cl)c(Cl)cc3F)c2c1
- logD [3]: 4.12

Structure (SMILES): Cc1nnc(SCC2=C(C(=O)O)N3C(=O)[C@@H](NC(=O)Cn4cnnn4)[C@H]3SC2)s1
- logP [19]: -0.24

Structure (SMILES): CN(C)CCN(Cc1ccccc1)c1ccccn1
- logP [16]: 2.65

Structure (SMILES): C[C@H](C(=O)O)c1ccc(-c2ccccc2)c(F)c1
- logD [26]: 3.87

Structure (SMILES): C=CCC1(C(=O)OC)C(C=C(C)C)C1(C)C (stereo not given)
- logP [27]: 4.89

Structure (SMILES): CC(CC(=O)O)c1ccc(OCc2ccccc2)cc1 (stereo not given)
- logD [1]: 3.58

Structure (SMILES): CN(C)c1ccccc1Sc1ccc(Cl)cc1N
- logD [28]: 3.55

Structure (SMILES): CCCCCCCCOC(=O)OC[C@@H]1O[C@H](n2ccc(N)nc2=O)CS1
- logP [22]: 1.72

Structure (SMILES): FCCNc1ccc(-c2cn3cc(I)ccc3n2)cc1
- logD [29]: 4.41

Structure (SMILES): CC=CCOC(=O)[C@@H]1[C@@H](C=C(C)C)C1(C)C
- logP [27]: 5.09

Structure (SMILES): CCCCOC(=O)[C@H](CS)NCCN[C@@H](CS)C(=O)OCCCC
- logD [24]: 2.9

Structure (SMILES): COC(=O)c1c(C)[nH]c(-c2ccc(Cl)cn2)c1C(=O)OC
- logP [25]: 2.7

Structure (SMILES): COc1ccc2[nH]c3c(c2c1)CCNc1cc(Cl)ccc1-3
- logP [13]: 4.24

Structure (SMILES): CNC12CCCCC1CC(C)c1ccccc12 (stereo not given)
- logP [30]: 3.96

Structure (SMILES): Cc1cc(=O)oc2c(C)c(OCC(O)CCl)ccc12 (stereo not given)
- logP [5]: 0.53

Structure (SMILES): Oc1ccc(/C=C/c2cc(O)cc(O)c2)cc1
- logP [31]: 2.56

Structure (SMILES): O=C(O)Cc1sc(-c2ccccc2)nc1-c1ccc(Cl)cc1
- logD [26]: 2.72

Structure (SMILES): FCCCNc1ccc(-c2cn3cc(I)ccc3n2)cc1
- logD [29]: 4.6

Structure (SMILES): Cc1ccc(SCC(=O)c2ccc(Cl)cc2)cc1
- logP [17]: 3.43

Structure (SMILES): CCCCOC(=O)n1cnc(CSCCNC(=NC#N)NC)c1C
- logD [7]: 2.15

Structure (SMILES): COc1ccc(Sc2ccccc2N(C)C)c(N)c1
- logD [28]: 2.83

Structure (SMILES): CC(C)N(CCC(CCN1CCCCC1)(C(N)=O)c1ccccc1Cl)C(C)C (stereo not given)
- logP: 4.78

Structure (SMILES): CCc1cccc(N(C)C(=N)Nc2cc(SC)ccc2Cl)c1
- logP [32]: 3

Structure (SMILES): CSc1cccc(N(C)C(=N)Nc2cc(SC)ccc2Cl)c1
- logP [32]: 2.68

Structure (SMILES): CNC12CC(CN)CCC1CCc1ccccc12 (stereo not given)
- logP [30]: 2
